Data as given in patent publication US4628115A, “Substituted 4-acetyl-3-hydroxyphenoxy alkanoic acids” (Hoffmann-La Roche Inc., priority 1985, dated 1986).
pIC50: −log10 of the molar value. Read-outs that look alike come from different tables or passages of the source.

Columns and labels:
leukotriene E4 = experiment: Guinea Pig Bronchoconstriction, In Vivo (leukotriene E4 i.v. challenge, drug i.v.); parameters: species or system guinea pig (Hartley strain, male); conditions: 10 mg/kg i.v., maximally constrictory dose of leukotriene E4 i.v.
Experimental: Male guinea pigs (Hartley strain) weighing 300 to 450 grams are anesthetized with urethane (2 g/Kg) intraperitoneally and a polyethylene cannula is inserted into the jugular vein for intravenous drug administration. Tracheal pressure is recorded from a cannula inserted in the trachea and connected to a Statham pressure transducer. Respiration is paralyzed with succinyl choline (1.2 mg/kg, i.v.) and the animals are mechanically respirated ([…] rodent respirator) at 40 breaths/minute and 2.5 cc tidal volume. The minutes thereafter, propranolol (0.1 mg/kg, i.v.) is administered. Five minutes later, the animals are pretreated intravenously for 30 seconds (at 10 mg/kg) with test drug or control vehicle. The animals are subsequently challenged with a maximally constrictory dose of leukotriene E4 also administered intravenously. The change (cm H2 O) between pre and peak ventilatory pressure readings is averaged calculated from the following formula: [formula]

[1] = tested on: SRS-A induced constriction of the guinea pig ileum; experiment: Guinea Pig Ileum, In Vitro (SRS-A antagonism); assay type: cell-based; conditions: Cavia porcellus
Experimental: The guinea pig ileum bioassay system has been described by Orange and Austen, Adv. Immunol. […] A 1.5 cm segment is removed from animals weighing 300-400 g. and suspended in an organ bath containing 10 ml. of Tyrodes solution with 10^-6 M atropine sulfate and 10^-6 M pyrilamine maleate. […] The SRS-A utilized in this screen is obtained by challenging chopped lung fragments from actively sensitized guinea pigs with egg albumin, in vitro. A dose-response curve to SRS-A challenge is established for the ileum. […] The drug concentration which inhibits, by 50%, the SRS-A induced constriction of the guinea pig ileum is determined.

LTE4 [2] = experiment: Aerosol Test (LTE4-induced bronchoconstriction, drug by inhalation); assay type: in vivo, guinea pig (Hartley strain, male); conditions: 1% (W/V) aerosol solution, five minute exposure, LTE4 i.v. challenge
Experimental: Male guinea pigs (Hartley strain) weighing 300 to 500 g are anesthetized with urethane (2 g/kg) intraperitoneally and a polyethylene cannula is inserted into the jugular vein for test compound administration. Tracheal pressure is recorded from a cannula inserted in the trachea and connected to a Statham pressure transducer. After surgical preparation of the animals, a period of time is allowed for pulmonary functions to stabilize. For testing purposes, drugs are administered according to the following protocol. Propranolol (0.1 mg/kg) is administered intravenously while the animals breathed spontaneously. Five minutes thereafter, the animals are exposed for a five minute period to a 1% (W/V) aerosol solution of test compound (adjusted to an alkaline pH where necessary for compound solubilization) or to distilled water of the appropriate pH (for control purposes). A Monaghan (Model 750) ultrasonic nebulizer is used to administer all compounds by inhalation. Aqueous solutions are prepared fresh and introduced into the chamber of the nebulizer. The output of the nebulizer is made available to the animal by directing a bias flow of aerosol through a y tube connected to the tracheal cannula. At the end of the exposure period, the animals are paralyzed with succinylcholine (1.2 mg/kg, i.v.) and mechanically respirated (Harvard rodent respirator) at 40 breaths/min and 2.5 cc tidal volume. […]

LTE4 [3] = experiment: Rat Skin Permeability, in Vivo (LTE4-induced wheal); conditions: 10 mg/kg i.v., LTE4 intradermal, 30 min, 5 animals
Experimental: In this model the ability of LTE4 to increase vascular permeability in rat skin was utilized. Anesthetized rats, pretreated for 30 minutes with an antihistamine, pyrilamine maleate, (50 mg/kg i.p.) and a serotonin antagonist, methylsergide maleate (4 mg/kg i.p.), were injected intradermally with a dose of LTE4 which gave a maximum wheal (in 0.05 ml saline). After introduction of test drug (at 10 mg/kg, i.v.) the animals were immediately treated intravenously with Evans blue dye i.v. (0.5%) in the tail vein resulting in the formation of a skin wheal. Thirty minutes later the animals were sacrificed and the skin wheal size was measured. The average response in 5 animals (4 intradermal injections per animal) treated with test compound was compared to that obtained in a similar group of control animals to determine the percent inhibition by the drug. A representative compound of the present invention, i.e., 6-(4-acetyl-3-hydroxy-2-propylphenoxy)hexanoic acid, caused a 35% reduction in skin wheal when tested at 10 mg/kg i.v.

[4] = guinea pig ileum, SRS-A challenge at EC50, 37° C., Table I, read-out: In vitro SRSA Antagonism Test, Guinea Pig Ileum IC50

| SMILES | pIC50 [1, 4] | further results |
| --- | --- | --- |
| CCCc1c(OCC(O)COc2ccc3c(=O)cc(C(=O)O)oc3c2CCC)ccc(C(C)=O)c1O (centres unmarked) [7-[3-(4-acetyl-3-hydroxy-2-propylphenoxy)-2-hydroxypropoxy]-4-oxo-8-propyl-4 H-1-benzopyran-2-carboxylic acid, reference compound] |  | inhibition of leukotriene E4 bronchoconstriction (leukotriene E4): 98%; pIC50 ([1]; read-out: IC50 (standard SRS-A antagonist)): 7.46 |
| CCCc1c(OCCOCCOCCOCCC(=O)O)ccc(C(C)=O)c1O [(CH2)2 O(CH2)2 O(CH2)2 O(CH2)2, 3-[2-[2-[2-(4-Acetyl-3-hydroxy-2-propylphenoxy)ethoxy]ethoxy]ethoxy]propanoic acid semihydrate] | 5.22 |  |
| CCCc1c(OCCOCCC(=O)O)ccc(C(C)=O)c1O [(CH2)2 O(CH2)2, 3-[2-(4-Acetyl-3-hydroxy-2-propylphenoxy)ethoxy]propanoic acid semihydrate] | 5.30 |  |
| CCCc1c(OCCCCCCCC(=O)O)ccc(C(C)=O)c1O [(CH2)7, 8-(4-Acetyl-3-hydroxy-2-propylphenoxy)octanoic acid] | 5.30 |  |
| CCCc1c(OCCCCCCCCCCC(=O)O)ccc(C(C)=O)c1O [(CH2)10, 11-(4-Acetyl-3-hydroxy-2-propylphenoxy)undecanoic acid] | 5.00 |  |
| CCCc1c(OCC(=O)O)ccc(C(C)=O)c1O [CH2, (4-Acetyl-3-hydroxy-2-propylphenoxy)acetic acid] | 5.00 |  |

Further lines, with some results ahead:

| pIC50 [1, 4] | SMILES | further results |
| --- | --- | --- |
| 5.00 | CCCc1c(OCCC(=O)O)ccc(C(C)=O)c1O [(CH2)2, 3-(4-Acetyl-3-hydroxy-2-propylphenoxy)propanoic acid] |  |
| 6.00 | CCCc1c(OCCCC#CC(=O)O)ccc(C(C)=O)c1O [(CH2)3 CC, 6-(4-Acetyl-3-hydroxy-2-propylphenoxy)-2-hexynoic acid] |  |
| 5.00 | CCCc1c(OCCCC(=O)O)ccc(C(C)=O)c1O [(CH2)3, 4-(4-Acetyl-3-hydroxy-2-propylphenoxy)butanoic acid] |  |
| 5.30 | CCCc1c(OCCCCC(=O)O)ccc(C(C)=O)c1O [(CH2)4, 5-(4-Acetyl-3-hydroxy-2-propylphenoxy)pentanoic acid] |  |
| 6.00 | CCCc1c(OCCCCCC(=O)O)ccc(C(C)=O)c1O [(CH2)5, 6-(4-Acetyl-3-hydroxy-2-propylphenoxy)hexanoic acid] | inhibition of the bronchoconstriction (LTE4 [2]): 36%; inhibition of leukotriene E4 bronchoconstriction (leukotriene E4): 73%; reduction in skin wheal (LTE4 [3]): 35% |
| 5.30 | CCCc1c(OCCCCCCC(=O)O)ccc(C(C)=O)c1O [(CH2)6, 7-(4-Acetyl-3-hydroxy-2-propylphenoxy)heptanoic acid] |  |
| 6.00 | CCCc1c(OCC#CCCCC(=O)O)ccc(C(C)=O)c1O [CH2 CC(CH2)3, 7-(4-Acetyl-3-hydroxy-2-propylphenoxy)-5-heptynoic acid] |  |
